Values after ≈ are worked out from the molar mass of the structure shown.
Columns and labels:
Type in all cases: functional
Aspergillus niger = experiment: Antimicrobial activity against Aspergillus niger MTCC 282 assessed as growth inhibition measured after overnight incubation by broth dilution method
[1] = tested on: Mycobacterium tuberculosis; experiment: Antitubercular activity against Mycobacterium tuberculosis H37Rv assessed as growth inhibition after 12 to 28 days by L.J. agar MIC method; conditions: for MIC: Mycobacterium tuberculosis, H37Rv
Candida albicans = experiment: Antimicrobial activity against Candida albicans MTCC 227 assessed as growth inhibition measured after overnight incubation by broth dilution method
Streptococcus pyogenes = experiment: Antimicrobial activity against Streptococcus pyogenes MTCC 442 assessed as growth inhibition measured after overnight incubation by broth dilution method
Aspergillus clavatus = experiment: Antimicrobial activity against Aspergillus clavatus MTCC 1323 assessed as growth inhibition measured after overnight incubation by broth dilution method
Staphylococcus aureus = experiment: Antimicrobial activity against Staphylococcus aureus MTCC 96 assessed as growth inhibition measured after overnight incubation by broth dilution method
Pseudomonas aeruginosa = experiment: Antimicrobial activity against Pseudomonas aeruginosa MTCC 2488 assessed as growth inhibition measured after overnight incubation by broth dilution method
Escherichia coli = experiment: Antimicrobial activity against Escherichia coli MTCC 443 assessed as growth inhibition measured after overnight incubation by broth dilution method

Row | Compound | MIC (Aspergillus niger) | growth inhibition (GI) [1] | MIC [1] | MIC (Candida albicans) | MIC (Streptococcus pyogenes) | MIC (Aspergillus clavatus) | MIC (Staphylococcus aureus) | MIC (Pseudomonas aeruginosa) | MIC (Escherichia coli)
1 | O=C(CCl)Nc1nc(Cl)cc(Cl)n1 | > 1000 µg/mL | 88% | 500 µg/mL (≈ 2080 µM) | 250 µg/mL (≈ 1040 µM) | 200 µg/mL (≈ 832 µM) | > 1000 µg/mL | 500 µg/mL (≈ 2080 µM) | 500 µg/mL (≈ 2080 µM) | 200 µg/mL (≈ 832 µM)
2 | S=c1[nH]nc(-c2cccnc2SCc2ccccc2)o1 | 1000 µg/mL (≈ 3320 µM) | 99% | 100 µg/mL (≈ 332 µM) | 1000 µg/mL (≈ 3320 µM) | 100 µg/mL (≈ 332 µM) | 200 µg/mL (≈ 664 µM) | 100 µg/mL (≈ 332 µM) | 125 µg/mL (≈ 415 µM) | 100 µg/mL (≈ 332 µM)
3 | CO[C@H]1/C=C/O[C@@]2(C)Oc3c(C)c(O)c4c(O)c(c(/C=N/N5CCN(C)CC5)c(O)c4c3C2=O)NC(=O)/C(C)=C\C=C\[C@H](C)[C@H](O)[C@@H](C)[C@@H](O)[C@@H](C)[C@H](OC(C)=O)[C@@H]1C [RIFAMPIN] |  | 99% | 40 µg/mL (≈ 48.6 µM) |  |  |  |  |  | 
4 | NNC(=O)c1cccnc1SCc1ccccc1 | 500 µg/mL (≈ 1930 µM) | 99% | 250 µg/mL (≈ 964 µM) | 500 µg/mL (≈ 1930 µM) | 125 µg/mL (≈ 482 µM) | 250 µg/mL (≈ 964 µM) | 125 µg/mL (≈ 482 µM) | 200 µg/mL (≈ 771 µM) | 125 µg/mL (≈ 482 µM)
5 | CCOC(=O)CSc1nnc(-c2cccnc2SCc2ccccc2)o1 | 1000 µg/mL (≈ 2580 µM) | 98% | 100 µg/mL (≈ 258 µM) | 1000 µg/mL (≈ 2580 µM) | 125 µg/mL (≈ 323 µM) | 1000 µg/mL (≈ 2580 µM) | 500 µg/mL (≈ 1290 µM) | 200 µg/mL (≈ 516 µM) | 500 µg/mL (≈ 1290 µM)
6 | CC1(C)S[C@@H]2[C@H](NC(=O)[C@H](N)c3ccccc3)C(=O)N2[C@H]1C(=O)O [AMPICILLIN] |  |  |  |  | 100 µg/mL (≈ 286 µM) |  | 250 µg/mL (≈ 715 µM) | 100 µg/mL (≈ 286 µM) | 100 µg/mL (≈ 286 µM)
7 | CN1CCN(C(=O)CCl)CC1 | > 1000 µg/mL | 99% | 250 µg/mL (≈ 1420 µM) | 1000 µg/mL (≈ 5660 µM) | 100 µg/mL (≈ 566 µM) | 500 µg/mL (≈ 2830 µM) | 250 µg/mL (≈ 1420 µM) | 100 µg/mL (≈ 566 µM) | 125 µg/mL (≈ 708 µM)
8 | c1ccc(CSc2ncccc2-c2nnc(SCC3CO3)o2)cc1 (stereo not given) | 1000 µg/mL (≈ 2800 µM) | 97% | 500 µg/mL (≈ 1400 µM) | 500 µg/mL (≈ 1400 µM) | 250 µg/mL (≈ 699 µM) | 1000 µg/mL (≈ 2800 µM) | 62.5 µg/mL (≈ 175 µM) | 125 µg/mL (≈ 350 µM) | 62.5 µg/mL (≈ 175 µM)

From ChEMBL document CHEMBL2331210, “New 2-benzylsulfanyl-nicotinic acid based 1,3,4-oxadiazoles: their synthesis and biological evaluation” (2013)
